Reference: US3943154A, “Acylamides of beta-cyano-ethenesulfonyl substituted aminoarenes” (Sanitized Incorporated, priority 1973, dated 1976)
In brackets after ≈: the same amount, converted by molar mass. Where two headings read alike, the source gives them in different places.

Key:
Format in all cases: cell-based
[1] = tested on: Staphylococcus aureus ATCC 6538 DR; experiment: button assay, antibacterial activity; settings: Staphylococcus aureus, ATCC6538, 24 h, read-out: Antibacterial Activity S.aureus, minimum inhibitory concentration
Experimental: (§1) In the test program, the minimum inhibitory concentrations of the respective test compounds against various Gram positive and Gram negative bacteria were determined, employing the "button assay" method. The test organisms utilized were standard cultures of Staphylococcus aureus ATCC 6538 DR, a penicillin resistant Gram positive bacterium; Bacillus subtilis ATCC 9525, a spore-forming Gram positive bacillus; and Salmonella typhosa ATCC 6539, a Gram negative bacterium.
(§2) In the tests the respective compounds were dissolved in a suitable solvent, usually acetone or dimethylsulfoxide, to give solutions with known concentrations of active material. The highest concentration was ordinarily 1000 ppm (parts per million) [0.1%], and dilutions were made in suitable steps down to 1 ppm. Penicillin test buttons of filter paper having a diameter of 13 mm (socalled "Peniassay" buttons) were added to each solution within a test tube and left submerged for five minutes. They were then removed and left to dry on paper towels under sterile conditions. A laminar flow sterile cabinet equipped with ultraviolet lamps operating under positive air pressure was utilized for this purpose.
(§3) An 18-24 hour old nutrient broth culture (standard 1.5% nutrient agar) prepared in conventional manner from a slant and having passed through at least three consecutive daily transfers was used for inoculation. Melted and cooled sterile agar (45° C) was inoculated with the respective broth cultures by addition of 20 ml broth per liter of agar. The agar was then dispensed into Petri dishes (20 ml per plate) under sterile conditions and allowed to harden.
(§4) The test buttons were placed on the surface of the hardened agar and the plates incubated for 24 hours at 37° C. Where, on inspection, a clear zone of inhibition appeared around the button, inhibition of growth was presumed. Where growth touched the button there was no inhibition. For each of the test compounds, the lowest concentration showing a clear zone is reported as the inhibitory concentration in the following table. […]

[2] = tested on: Bacillus subtilis ATCC 9525; experiment: button assay, antibacterial activity; settings: Bacillus subtilis, ATCC9525, lowest concentration showing a clear zone of inhibition, 24 hours at 37° C, read-out: Antibacterial Activity B.subtilis, minimum inhibitory concentration
Experimental: as §1, §2, §3
The test buttons were placed on the surface of the hardened agar and the plates incubated for 24 hours at 37° C. Where, on inspection, a clear zone of inhibition appeared around the button, inhibition of growth was presumed. Where growth touched the button there was no inhibition. For each of the test compounds, the lowest concentration showing a clear zone is reported as the inhibitory concentration in the following table.
(§5) The button assay and agar incorporation tests were also utilized to determine the corresponding inhibitory concentrations of various control materials, viz., the following well known commercial antimicrobials and fungicides: hexachlorophene, tribromosalicylanilide, trichlorocarbanilide,Captan (N-(trichloromethylthio)4cyclohexene-1,2-dicarboximide) and Zineb (zinc ethylenebis[dithiocarbamate]). The minimum inhibitory concentration of each of the various control materials against the respective organisms is indicated in Table IV below: […]

[3] = tested on: Salmonella typhosa ATCC 6539; experiment: button assay, antibacterial activity; settings: Salmonella enterica, read-out: Antibacterial Activity S.typhosa, minimum inhibitory concentration
Experimental: as §1
as §2, with “The” for “In the tests the respective compounds were dissolved in a suitable solvent, usually acetone or dimethylsulfoxide, to give solutions with known concentrations of active material. The”
as §3, §4

[4] = tested on: Aspergillus niger ATCC 6257; experiment: agar incorporation test, antifungal activity; settings: Aspergillus niger, ATCC6257, 96 h, lowest concentration showing no growth or sporulation, four days at 28° C, read-out: Antifungal Activity A. niger, minimum inhibitory concentration
Experimental: The anti-fungal activity of the test compounds was determined employing the "agar incorporation" technique, utilizing spores from Aspergillus niger ATCC 6257 as a representative organism. Test solutions were prepared as described above in acetone or dimethylsulfoxide. A source of carbon agar such as Mycophil Agar was used. The agar was melted and cooled and placed in a constant temperature water bath at 45° C + 3° C. About 13-14 ml of the agar was then poured into a sterile Petri dish, the required amount of test solution to give the desired concentration immediately added thereto, and the dish rotated and swirled by hand to obtain a uniform mixture before the agar hardened.
The hardened plates were inoculated with the test organism by fishing spores from a 7-14 day old slant with the inocculating needle and spotting the spores on the plates, usually in several places. The inoculated plates were incubated for four days in an incubator maintained at 28° C +2° C and with a relative humidity of 95%+.
The lowest concentration of each test compound showing no growth or sporulation of the test organism was taken as the minimum inhibitory concentration and is reported in the following tabulation.
as §5

[5] = button assay, lowest concentration showing a clear zone of inhibition, 24 hours at 37° C

SMILES | MIC [1] | MIC [2] | MIC ([3]; 24 h) | MIC [4] | MIC [3, 5]
CC(=O)Nc1ccc(S(=O)(=O)C=CC#N)cc1 [3-(4-acetamidobenzenesulfonyl)acrylonitrile, reference compound] | 50 µg/mL (≈ 200 µM) | 20 µg/mL (≈ 79.9 µM) | 20 µg/mL (≈ 79.9 µM) | > 1000 µg/mL | 
N#CC=CS(=O)(=O)c1ccc(N)cc1 [3-(4-aminobenzenesulfonyl)acrylonitrile, reference compound] | 20 µg/mL (≈ 96 µM) | 20 µg/mL (≈ 96 µM) | 20 µg/mL (≈ 96 µM) | 300 µg/mL (≈ 1440 µM) | 
O=C1C2CC=CCC2C(=O)N1SC(Cl)(Cl)Cl (stereo not shown) [Captan, N-(trichloromethylthio)4cyclohexene-1,2-dicarboximide, reference compound] | 25 µg/mL (≈ 83.2 µM) | 100 µg/mL (≈ 333 µM) |  | 300 µg/mL (≈ 998 µM) | 25 µg/mL (≈ 83.2 µM)
CS(=O)(=O)Nc1ccc(S(=O)(=O)C=CC#N)cc1 [Example 1, 3-(4-methanesulfonylamidobenzenesulfonyl)acrylonitrile] | 300 µg/mL (≈ 1050 µM) | 100 µg/mL (≈ 349 µM) | 1000 µg/mL (≈ 3490 µM) | > 1000 µg/mL | 
CCS(=O)(=O)Nc1ccc(S(=O)(=O)C=CC#N)cc1 [Example 2, 3-(4-ethanesulfonamidobenzenesulfonyl)acrylonitrile] | 100 µg/mL (≈ 333 µM) | 20 µg/mL (≈ 66.6 µM) | 20 µg/mL (≈ 66.6 µM) | > 1000 µg/mL | 
CCCCS(=O)(=O)Nc1ccc(S(=O)(=O)C=CC#N)cc1 [Example 3, 3-(4-butanesulfonamidobenzenesulfonyl)acrylonitrile] | 50 µg/mL (≈ 152 µM) | 20 µg/mL (≈ 60.9 µM) | 50 µg/mL (≈ 152 µM) | > 1000 µg/mL | 
CCCCCCCCCCCCCCCCS(=O)(=O)Nc1ccc(S(=O)(=O)C=CC#N)cc1 [Example 4, 3-([…])ACRYLONITRILE] | 20 µg/mL (≈ 40.3 µM) | 20 µg/mL (≈ 40.3 µM) | 50 µg/mL (≈ 101 µM) | 500 µg/mL (≈ 1010 µM) | 
C=CS(=O)(=O)Nc1ccc(S(=O)(=O)C=CC#N)cc1 [Example 9, 3-(4-[…])ACRYLONITRILE] | 20 µg/mL (≈ 67 µM) | 10 µg/mL (≈ 33.5 µM) | 50 µg/mL (≈ 168 µM) | 100 µg/mL (≈ 335 µM) | 
N#CC=CS(=O)(=O)c1ccc(NS(=O)(=O)C=Cc2ccccc2)cc1 [Example 10, 3-[4-(2-phenylethenesulfonamido)benzenesulfonyl]acrylonitrile] | 5 µg/mL (≈ 13.4 µM) | 5 µg/mL (≈ 13.4 µM) | 5 µg/mL (≈ 13.4 µM) | > 1000 µg/mL | 
N#CC=CS(=O)(=O)c1ccc(NS(=O)(=O)c2ccccc2)cc1 [Example 11, 3-(4-benzene-sulfonamidobenzenesulfonyl)acrylonitrile] | 20 µg/mL (≈ 57.4 µM) | 50 µg/mL (≈ 144 µM) | 50 µg/mL (≈ 144 µM) | > 1000 µg/mL | 
Cc1ccc(S(=O)(=O)C=CC#N)cc1NS(=O)(=O)c1ccccc1 [Example 12, 3-(3-benzenesulfonamido-4-methylbenzenesulfonyl)acrylonitrile] | 100 µg/mL (≈ 276 µM) | 100 µg/mL (≈ 276 µM) | 100 µg/mL (≈ 276 µM) | > 1000 µg/mL | 
Cc1ccc(S(=O)(=O)Nc2ccc(S(=O)(=O)C=CC#N)cc2)cc1 [Example 13, 3-[4-(4-methylbenzenesulfonamido)benzenesulfonyl]acrylonitrile] | 5 µg/mL (≈ 13.8 µM) | 5 µg/mL (≈ 13.8 µM) | 5 µg/mL (≈ 13.8 µM) | > 1000 µg/mL | 
Cc1ccccc1S(=O)(=O)Nc1ccc(S(=O)(=O)C=CC#N)cc1 [Example 16, 3-[4-(2-METHYLBENZENESULFONAMIDO)BENZENESULFONYL]ACRYLONITRILE] | 20 µg/mL (≈ 55.2 µM) | 20 µg/mL (≈ 55.2 µM) | 20 µg/mL (≈ 55.2 µM) | > 1000 µg/mL | 
CCCCCCCCCCCCc1ccc(S(=O)(=O)Nc2ccc(S(=O)(=O)C=CC#N)cc2)cc1 [Example 17] | 5 µg/mL (≈ 9.68 µM) | 10 µg/mL (≈ 19.4 µM) | 10 µg/mL (≈ 19.4 µM) | 300 µg/mL (≈ 581 µM) | 
Cc1cc(C)c(S(=O)(=O)Nc2ccc(S(=O)(=O)C=CC#N)cc2)c(C)c1 [Example 18, 3-[4-(2,4,6-trimethylbenzenesulfonamido)benzenesulfonyl]acrylonitrile] | 5 µg/mL (≈ 12.8 µM) | 10 µg/mL (≈ 25.6 µM) | 10 µg/mL (≈ 25.6 µM) | 100 µg/mL (≈ 256 µM) | 
CC(C)c1cc(C(C)C)c(S(=O)(=O)Nc2ccc(S(=O)(=O)C=CC#N)cc2)c(C(C)C)c1 [Example 19, 3-[4-(2,4,6-tri-isopropylbenzenesulfonamido)benzenesulfonyl]acrylonitrile] | 1000 µg/mL (≈ 2110 µM) | 1000 µg/mL (≈ 2110 µM) | 1000 µg/mL (≈ 2110 µM) | > 1000 µg/mL | 
N#CC=CS(=O)(=O)c1ccc(NS(=O)(=O)c2ccc(Cl)cc2)cc1 [Example 20, 3-[4-(4-chlorobenzenesulfonamido)benzenesulfonyl]acrylonitrile] | 20 µg/mL (≈ 52.2 µM) | 5 µg/mL (≈ 13.1 µM) | 10 µg/mL (≈ 26.1 µM) | > 1000 µg/mL | 
N#CC=CS(=O)(=O)c1ccc(NS(=O)(=O)c2ccc([N+](=O)[O-])cc2)cc1 [Example 22.1, 3-[4-(4-nitrobenzenesulfonamido)benzenesulfonyl]acrylonitrile] | 100 µg/mL (≈ 254 µM) | 50 µg/mL (≈ 127 µM) | 50 µg/mL (≈ 127 µM) | > 1000 µg/mL | 
N#CC=CS(=O)(=O)c1ccc(NS(=O)(=O)c2ccccc2[N+](=O)[O-])cc1 [Example 22.3, 3-[4-(2-nitrobenzenesulfonamido)benzenesulfonyl]acrylonitrile] | 10 µg/mL (≈ 25.4 µM) | ~50 µg/mL (≈ 127 µM) | 100 µg/mL (≈ 254 µM) | > 1000 µg/mL | 
N#CC=CS(=O)(=O)c1ccc(NS(=O)(=O)c2ccc([N+](=O)[O-])cc2[N+](=O)[O-])cc1 [Example 23.1, 3-[4-(2,4-dinitrobenzenesulfonamido)benzenesulfonyl]acrylonitrile] | 5 µg/mL (≈ 11.4 µM) | 50 µg/mL (≈ 114 µM) |  | 100 µg/mL (≈ 228 µM) | 50 µg/mL (≈ 114 µM)
N#CC=CS(=O)(=O)c1ccc(NS(=O)(=O)c2ccc(Cl)c([N+](=O)[O-])c2)cc1 [Example 23.2, 3-[4-(4-chloro-3-nitrobenzenesulfonamido)benzenesulfonyl]acrylonitrile] | 100 µg/mL (≈ 234 µM) | 300 µg/mL (≈ 701 µM) | 100 µg/mL (≈ 234 µM) | 1000 µg/mL (≈ 2340 µM) | 
N#CC=CS(=O)(=O)c1ccc(NS(=O)(=O)c2ccc(Cl)cc2[N+](=O)[O-])cc1 [Example 23.3, 3-[4-(4-chloro-2-nitrobenzenesulfonamido)benzenesulfonyl]acrylonitrile] | 10 µg/mL (≈ 23.4 µM) | 10 µg/mL (≈ 23.4 µM) | 20 µg/mL (≈ 46.7 µM) | 100 µg/mL (≈ 234 µM) | 
N#CC=CS(=O)(=O)c1ccc(NS(=O)(=O)c2cc(Cl)cc(Cl)c2O)cc1 [Example 24, 3-[4-(3,5-dichloro-2-hydroxybenzenesulfonamido)-benzenesulfonyl]acrylonitrile] | 300 µg/mL (≈ 692 µM) | 300 µg/mL (≈ 692 µM) | 300 µg/mL (≈ 692 µM) | 1000 µg/mL (≈ 2310 µM) | 
N#CC=CS(=O)(=O)c1ccc(NS(=O)(=O)c2ccc(O)c(C(=O)O)c2)cc1 [Example 25, 3-[4-(4-HYDROXY-3-[…])-BENZENESULFONYL]ACRYLONITRILE] | 50 µg/mL (≈ 122 µM) | 50 µg/mL (≈ 122 µM) | 50 µg/mL (≈ 122 µM) | 500 µg/mL (≈ 1220 µM) | 
N#CC=CS(=O)(=O)c1ccc(NS(=O)(=O)c2cccc(C(=O)O)c2)cc1 [Example 26, 3-[4-(3-carboxybenzenesulfonamido)-benzenesulfonyl]acrylonitrile] | 10 µg/mL (≈ 25.5 µM) | 10 µg/mL (≈ 25.5 µM) | 10 µg/mL (≈ 25.5 µM) | > 1000 µg/mL | 
